Reference: PMC6199309, “A therapeutic approach to pantothenate kinase associated neurodegeneration” (Nature Communications, 2018)
Entries after “also recorded” stand apart in the source; their conditions may differ.

Columns and labels:
[1] = target: T1, ABL1(T315I)-nonphosphorylated (Homo sapiens, UniProt P00519, T315I); test: KINOMEscan; format: binding; conditions: read-out: %Ctrl @ 10000nM
T1 construct: purchased DiscoverX KINOMEscan

[2] = target: T2, ABL1(T315I)-phosphorylated (Homo sapiens, UniProt P00519, T315I); test: KINOMEscan; format: binding; conditions: read-out: %Ctrl @ 10000nM
T2 construct: purchased DiscoverX KINOMEscan

[3] = target: T3, ASK1 (Homo sapiens, UniProt Q99683); test: KINOMEscan; format: binding; conditions: read-out: %Ctrl @ 10000nM
T3 construct: purchased DiscoverX KINOMEscan
T3 sequence (Q99683 whole entry): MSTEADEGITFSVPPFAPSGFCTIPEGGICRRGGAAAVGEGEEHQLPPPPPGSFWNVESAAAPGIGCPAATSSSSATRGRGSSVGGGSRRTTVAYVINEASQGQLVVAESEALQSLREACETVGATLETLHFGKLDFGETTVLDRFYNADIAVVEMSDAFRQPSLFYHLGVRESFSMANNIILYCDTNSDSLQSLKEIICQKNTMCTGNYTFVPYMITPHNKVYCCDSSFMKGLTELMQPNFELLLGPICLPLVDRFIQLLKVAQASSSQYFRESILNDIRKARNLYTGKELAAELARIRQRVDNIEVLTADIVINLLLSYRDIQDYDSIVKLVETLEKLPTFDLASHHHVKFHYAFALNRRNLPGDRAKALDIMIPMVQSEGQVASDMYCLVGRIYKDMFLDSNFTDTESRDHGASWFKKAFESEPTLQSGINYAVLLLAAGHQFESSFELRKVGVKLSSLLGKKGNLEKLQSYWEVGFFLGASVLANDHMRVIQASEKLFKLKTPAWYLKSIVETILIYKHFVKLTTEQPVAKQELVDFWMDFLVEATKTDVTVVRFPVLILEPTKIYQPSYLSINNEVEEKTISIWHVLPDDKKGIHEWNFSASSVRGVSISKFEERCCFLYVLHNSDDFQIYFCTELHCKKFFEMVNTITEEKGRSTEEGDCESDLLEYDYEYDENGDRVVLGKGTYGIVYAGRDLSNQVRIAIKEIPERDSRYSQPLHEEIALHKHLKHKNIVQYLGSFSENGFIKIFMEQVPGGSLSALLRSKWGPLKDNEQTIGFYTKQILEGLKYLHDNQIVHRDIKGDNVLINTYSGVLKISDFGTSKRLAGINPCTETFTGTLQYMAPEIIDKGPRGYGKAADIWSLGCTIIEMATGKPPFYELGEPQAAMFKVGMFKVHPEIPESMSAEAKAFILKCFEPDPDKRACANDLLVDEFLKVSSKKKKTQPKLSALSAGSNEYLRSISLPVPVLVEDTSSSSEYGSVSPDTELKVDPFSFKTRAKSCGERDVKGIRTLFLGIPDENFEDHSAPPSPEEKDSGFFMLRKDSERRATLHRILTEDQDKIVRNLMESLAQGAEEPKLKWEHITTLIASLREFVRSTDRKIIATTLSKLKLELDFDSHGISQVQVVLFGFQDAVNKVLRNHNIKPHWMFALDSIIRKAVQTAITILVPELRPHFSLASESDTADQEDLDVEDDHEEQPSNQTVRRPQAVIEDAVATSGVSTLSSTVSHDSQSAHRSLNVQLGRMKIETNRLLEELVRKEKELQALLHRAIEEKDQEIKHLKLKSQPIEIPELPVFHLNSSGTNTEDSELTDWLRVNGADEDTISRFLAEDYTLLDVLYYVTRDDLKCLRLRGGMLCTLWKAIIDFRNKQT

[4] = target: T4, AURKB (Homo sapiens, UniProt Q96GD4); test: KINOMEscan; format: binding; conditions: read-out: %Ctrl @ 10000nM
T4 construct: purchased DiscoverX KINOMEscan

[5] = target: T5, BLK (Homo sapiens, UniProt P51451); test: KINOMEscan; format: binding; conditions: read-out: %Ctrl @ 10000nM
T5 construct: purchased DiscoverX KINOMEscan
T5 sequence (P51451 whole entry): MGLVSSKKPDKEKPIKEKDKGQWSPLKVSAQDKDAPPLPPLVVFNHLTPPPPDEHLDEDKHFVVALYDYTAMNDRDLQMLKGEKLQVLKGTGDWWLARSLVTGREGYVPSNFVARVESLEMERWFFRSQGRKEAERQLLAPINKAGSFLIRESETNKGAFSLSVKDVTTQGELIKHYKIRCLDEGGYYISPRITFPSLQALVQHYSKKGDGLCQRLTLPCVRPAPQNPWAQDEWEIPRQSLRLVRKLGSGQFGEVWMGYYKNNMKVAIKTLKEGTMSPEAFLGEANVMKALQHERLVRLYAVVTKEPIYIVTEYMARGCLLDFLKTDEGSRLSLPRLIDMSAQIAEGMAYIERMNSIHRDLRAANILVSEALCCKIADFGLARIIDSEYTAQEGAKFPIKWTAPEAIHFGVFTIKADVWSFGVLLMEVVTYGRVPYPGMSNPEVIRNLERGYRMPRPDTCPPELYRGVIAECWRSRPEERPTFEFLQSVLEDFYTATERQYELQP

[6] = target: T6, BRSK1 (Homo sapiens, UniProt Q8TDC3); test: KINOMEscan; format: binding; conditions: read-out: %Ctrl @ 10000nM
T6 construct: purchased DiscoverX KINOMEscan

[7] = target: T7, BUB1 (Homo sapiens, UniProt O43683); test: KINOMEscan; format: binding; conditions: read-out: %Ctrl @ 10000nM
T7 construct: purchased DiscoverX KINOMEscan

[8] = target: T8, CAMK1 (Homo sapiens, UniProt Q14012); test: KINOMEscan; format: binding; conditions: read-out: %Ctrl @ 10000nM
T8 construct: purchased DiscoverX KINOMEscan

[9] = target: T9, CAMK2D (Homo sapiens, UniProt Q13557); test: KINOMEscan; format: binding; conditions: read-out: %Ctrl @ 10000nM
T9 construct: purchased DiscoverX KINOMEscan

[10] = target: T10, CAMK4 (Homo sapiens, UniProt Q16566); test: KINOMEscan; format: binding; conditions: read-out: %Ctrl @ 10000nM
T10 construct: purchased DiscoverX KINOMEscan
T10 sequence (Q16566 whole entry): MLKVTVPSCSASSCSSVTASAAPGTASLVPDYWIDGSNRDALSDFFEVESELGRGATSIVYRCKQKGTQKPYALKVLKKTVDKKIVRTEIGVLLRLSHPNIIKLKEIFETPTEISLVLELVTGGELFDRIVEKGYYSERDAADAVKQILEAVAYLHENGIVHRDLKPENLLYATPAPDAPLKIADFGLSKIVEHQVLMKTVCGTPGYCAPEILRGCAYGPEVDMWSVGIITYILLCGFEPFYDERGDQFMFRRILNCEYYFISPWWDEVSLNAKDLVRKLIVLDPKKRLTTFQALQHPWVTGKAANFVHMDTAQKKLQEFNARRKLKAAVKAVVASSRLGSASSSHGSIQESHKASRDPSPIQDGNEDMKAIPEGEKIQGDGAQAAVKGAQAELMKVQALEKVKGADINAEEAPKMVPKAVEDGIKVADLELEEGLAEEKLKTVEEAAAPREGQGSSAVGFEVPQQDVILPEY

[11] = target: T11, CDKL2 (Homo sapiens, UniProt Q92772); test: KINOMEscan; format: binding; conditions: read-out: %Ctrl @ 10000nM
T11 construct: purchased DiscoverX KINOMEscan

[12] = target: T12, CHEK1 (Homo sapiens, UniProt O14757); test: KINOMEscan; format: binding; conditions: read-out: %Ctrl @ 10000nM
T12 construct: purchased DiscoverX KINOMEscan

[13] = target: T13, CIT (Homo sapiens, UniProt O14578); test: KINOMEscan; format: binding; conditions: read-out: %Ctrl @ 10000nM
T13 construct: purchased DiscoverX KINOMEscan

[14] = target: T14, CSNK1G2 (Homo sapiens, UniProt P78368); test: KINOMEscan; format: binding; conditions: read-out: %Ctrl @ 10000nM
T14 construct: purchased DiscoverX KINOMEscan

[15] = target: T15, DRAK1 (Homo sapiens, UniProt Q9UEE5); test: KINOMEscan; format: binding; conditions: read-out: %Ctrl @ 10000nM
T15 construct: purchased DiscoverX KINOMEscan

[16] = target: T16, EPHA1 (Homo sapiens, UniProt P21709); test: KINOMEscan; format: binding; conditions: read-out: %Ctrl @ 10000nM
T16 construct: purchased DiscoverX KINOMEscan

[17] = target: T17, FGFR4 (Homo sapiens, UniProt P22455); test: KINOMEscan; format: binding; conditions: read-out: %Ctrl @ 10000nM
T17 construct: purchased DiscoverX KINOMEscan

[18] = target: T18, JNK1 (Homo sapiens, UniProt P45983); test: KINOMEscan; format: binding; conditions: read-out: %Ctrl @ 10000nM
T18 construct: purchased DiscoverX KINOMEscan

[19] = target: T19, MAP3K1 (Homo sapiens, UniProt Q13233); test: KINOMEscan; format: binding; conditions: read-out: %Ctrl @ 10000nM
T19 construct: purchased DiscoverX KINOMEscan

[20] = target: T20, MEK2 (Homo sapiens, UniProt P36507); test: KINOMEscan; format: binding; conditions: read-out: %Ctrl @ 10000nM
T20 construct: purchased DiscoverX KINOMEscan

[21] = target: T21, MEK3 (Homo sapiens, UniProt P46734); test: KINOMEscan; format: binding; conditions: read-out: %Ctrl @ 10000nM
T21 construct: purchased DiscoverX KINOMEscan
T21 sequence (P46734 whole entry): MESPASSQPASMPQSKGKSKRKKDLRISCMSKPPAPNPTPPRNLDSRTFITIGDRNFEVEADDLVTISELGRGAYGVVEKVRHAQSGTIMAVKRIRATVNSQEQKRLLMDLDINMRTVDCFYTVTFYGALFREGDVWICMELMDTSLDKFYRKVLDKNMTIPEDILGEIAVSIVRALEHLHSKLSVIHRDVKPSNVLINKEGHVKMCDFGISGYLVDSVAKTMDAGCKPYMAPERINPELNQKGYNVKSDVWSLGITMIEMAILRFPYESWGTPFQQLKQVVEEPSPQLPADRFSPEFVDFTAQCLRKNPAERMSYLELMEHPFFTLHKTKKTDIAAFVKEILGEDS

[22] = target: T22, MLCK (Homo sapiens, UniProt Q32MK0); test: KINOMEscan; format: binding; conditions: read-out: %Ctrl @ 10000nM
T22 construct: purchased DiscoverX KINOMEscan

[23] = target: T23, MYLK4 (Homo sapiens, UniProt Q86YV6); test: KINOMEscan; format: binding; conditions: read-out: %Ctrl @ 10000nM
T23 construct: purchased DiscoverX KINOMEscan

[24] = target: T24, PFTAIRE2 (Homo sapiens, UniProt Q96Q40); test: KINOMEscan; format: binding; conditions: read-out: %Ctrl @ 10000nM
T24 construct: purchased DiscoverX KINOMEscan

[25] = target: T25, RET (Homo sapiens, UniProt P07949); test: KINOMEscan; format: binding; conditions: read-out: %Ctrl @ 10000nM
T25 construct: purchased DiscoverX KINOMEscan

[26] = target: T26, RPS6KA5(Kin.Dom.1-N-terminal) (Homo sapiens, UniProt O75582); test: KINOMEscan; format: binding; conditions: read-out: %Ctrl @ 10000nM
T26 construct: RPS6KA5(Kin.Dom.1-N-terminal); purchased DiscoverX KINOMEscan
T26 sequence (O75582 1-387 limits assumed): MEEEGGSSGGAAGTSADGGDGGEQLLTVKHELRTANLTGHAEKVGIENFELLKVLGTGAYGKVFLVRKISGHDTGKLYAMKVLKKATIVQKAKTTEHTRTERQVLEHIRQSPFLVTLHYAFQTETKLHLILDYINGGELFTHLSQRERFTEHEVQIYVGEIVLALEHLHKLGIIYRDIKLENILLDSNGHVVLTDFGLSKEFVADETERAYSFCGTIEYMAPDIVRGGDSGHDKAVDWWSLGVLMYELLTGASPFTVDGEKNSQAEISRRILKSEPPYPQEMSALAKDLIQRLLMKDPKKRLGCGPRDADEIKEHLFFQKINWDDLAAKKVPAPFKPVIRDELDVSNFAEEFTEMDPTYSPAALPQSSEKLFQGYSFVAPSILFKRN

[27] = target: T27, SBK1 (Homo sapiens, UniProt Q52WX2); test: KINOMEscan; format: binding; conditions: read-out: %Ctrl @ 10000nM
T27 construct: purchased DiscoverX KINOMEscan
T27 sequence (Q52WX2 whole entry): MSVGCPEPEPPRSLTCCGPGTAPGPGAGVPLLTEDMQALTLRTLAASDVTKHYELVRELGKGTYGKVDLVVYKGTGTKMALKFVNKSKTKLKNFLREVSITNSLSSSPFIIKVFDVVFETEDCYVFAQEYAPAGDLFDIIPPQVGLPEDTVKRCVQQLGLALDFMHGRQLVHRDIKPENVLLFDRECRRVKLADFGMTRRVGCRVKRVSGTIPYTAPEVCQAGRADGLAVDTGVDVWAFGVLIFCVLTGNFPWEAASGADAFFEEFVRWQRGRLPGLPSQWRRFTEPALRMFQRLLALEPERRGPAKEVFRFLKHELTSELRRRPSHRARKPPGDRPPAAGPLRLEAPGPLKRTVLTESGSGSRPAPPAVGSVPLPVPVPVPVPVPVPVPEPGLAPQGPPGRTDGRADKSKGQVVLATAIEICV

[28] = target: T28, SRC (Homo sapiens, UniProt P12931); test: KINOMEscan; format: binding; conditions: read-out: %Ctrl @ 10000nM
T28 construct: purchased DiscoverX KINOMEscan
T28 sequence (P12931 whole entry): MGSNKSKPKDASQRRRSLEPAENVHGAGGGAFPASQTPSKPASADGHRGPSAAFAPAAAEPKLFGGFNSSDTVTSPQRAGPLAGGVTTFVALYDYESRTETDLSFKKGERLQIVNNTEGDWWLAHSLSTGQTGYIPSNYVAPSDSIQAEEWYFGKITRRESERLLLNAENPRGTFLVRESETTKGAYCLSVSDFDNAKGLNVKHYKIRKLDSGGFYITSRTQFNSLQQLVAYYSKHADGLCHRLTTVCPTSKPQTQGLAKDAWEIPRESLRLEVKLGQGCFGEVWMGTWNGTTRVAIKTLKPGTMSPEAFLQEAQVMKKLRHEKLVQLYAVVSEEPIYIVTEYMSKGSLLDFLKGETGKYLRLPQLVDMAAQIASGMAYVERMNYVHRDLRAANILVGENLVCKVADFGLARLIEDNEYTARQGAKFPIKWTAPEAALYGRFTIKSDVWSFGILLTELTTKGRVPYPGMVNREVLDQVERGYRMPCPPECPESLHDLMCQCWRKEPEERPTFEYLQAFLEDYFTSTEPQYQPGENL

[29] = target: T29, STK35 (Homo sapiens, UniProt Q8TDR2); test: KINOMEscan; format: binding; conditions: read-out: %Ctrl @ 10000nM
T29 construct: DNA tag for qPCR (T7 phage fusion or DNA label); purchased DiscoverX KdELECT; host or cells: E. coli BL21-derived (T7 phage) or HEK-293

[30] = target: T30, TLK2 (Homo sapiens, UniProt Q86UE8); test: KINOMEscan; format: binding; conditions: read-out: %Ctrl @ 10000nM
T30 construct: purchased DiscoverX KINOMEscan
T30 sequence (Q86UE8 whole entry): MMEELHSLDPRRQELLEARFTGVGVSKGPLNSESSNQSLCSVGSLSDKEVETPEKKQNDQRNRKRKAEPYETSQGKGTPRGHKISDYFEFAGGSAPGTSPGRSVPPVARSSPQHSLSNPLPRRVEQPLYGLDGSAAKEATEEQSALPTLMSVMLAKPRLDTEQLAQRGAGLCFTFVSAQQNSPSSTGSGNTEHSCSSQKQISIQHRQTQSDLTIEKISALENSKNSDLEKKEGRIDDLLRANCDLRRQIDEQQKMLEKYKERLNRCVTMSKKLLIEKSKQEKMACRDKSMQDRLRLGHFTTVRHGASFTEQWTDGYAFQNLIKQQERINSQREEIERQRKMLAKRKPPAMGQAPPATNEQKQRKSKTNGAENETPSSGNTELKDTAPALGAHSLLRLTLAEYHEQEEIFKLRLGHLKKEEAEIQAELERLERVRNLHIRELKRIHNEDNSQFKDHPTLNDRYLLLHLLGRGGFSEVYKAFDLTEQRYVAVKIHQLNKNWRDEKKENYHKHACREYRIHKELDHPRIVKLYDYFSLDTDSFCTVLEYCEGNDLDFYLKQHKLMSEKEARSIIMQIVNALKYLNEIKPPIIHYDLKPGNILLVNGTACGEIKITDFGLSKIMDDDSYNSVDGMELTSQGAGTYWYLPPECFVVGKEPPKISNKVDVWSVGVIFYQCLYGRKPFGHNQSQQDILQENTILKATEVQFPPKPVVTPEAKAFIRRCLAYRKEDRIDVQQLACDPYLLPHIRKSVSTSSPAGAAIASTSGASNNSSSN

[31] = target: T31, TYK2(JH1domain-catalytic) (Homo sapiens, UniProt P29597); test: KINOMEscan; format: binding; conditions: read-out: %Ctrl @ 10000nM
T31 construct: TYK2(JH1domain-catalytic); DNA label for qPCR (T7 phage fusion or DNA tag); purchased DiscoverX scanMAX; host or cells: E. coli BL21-derived (T7 phage) or HEK-293

[32] = Plasma stability; format: in vitro ADME; conditions: mouse, read-out: Plasma Stability T1/2
[33] = tested on: C3A cells; test: Cell growth and macromolecular synthesis; format: cell-based, human; conditions: 10 μM
Experimental: For quantifying protein, DNA and lipid synthesis, C3A cells were first seeded at 2 × 10^6 in 60 mm-dishes and grown overnight in maintenance medium. Cells were washed once with phosphate buffered saline (PBS) and 2 ml of labeling medium plus radiochemical was added to start the 24 h incubation. […]. […] The labeling medium contained 0.1% dimethylsulfoxide (DMSO; control) or 10 μM compound in 0.1% DMSO. Cells were harvested, washed once with PBS and harvested either by trypsinization and vacuum filtration through 0.45 micron discs (Millipore, HAWP02500) for protein and DNA determinations, or by scraping and extraction in 100 μl H2O + 240 μl methanol/acetic acid 98:2 + 100 μl CHCl3 for lipid determination. Filters were washed three times with PBS, air dried and counted with a Liquid Scintillation Analyzer. Radioactivity was normalized to cell numbers and viability was >95%. Cellular lipid emulsions were separated by centrifugation and the lower phases were quantified by liquid scintillation counting and normalized to cell numbers.
(b) Pathway labeling of C3A cells treated with either DMSO or DMSO […]
[…]. labeled amino acid mixture, DNA synthesis was determined by measuring the incorporation of [3H]thymidine, and lipid synthesis was determined by labeling with [U-14C]glucose and measuring the incorporation of label into the lipid fraction as described in Methods. […]

[34] = Protein binding; conditions: mouse

## CC(C)c1ccc(CC(=O)N2CCN(c3ccc(C#N)nn3)CC2)cc1 [PZ-2891, 6-(4-(2-(4-isopropylphenyl)acetyl)piperazin-1-yl)pyridazine-3-carbonitrile]
[1]
  remaining binding at 10 µM: 63%
[2]
  remaining binding at 10 µM: 97%
[3]
  remaining binding at 10 µM: 74%
[4]
  remaining binding at 10 µM: 89%
[5]
  remaining binding at 10 µM: 87%
[6]
  remaining binding at 10 µM: 75%
[7]
  remaining binding at 10 µM: 100%
[8]
  remaining binding at 10 µM: 93%
[9]
  remaining binding at 10 µM: 91%
[10]
  remaining binding at 10 µM: 89%
[11]
  remaining binding at 10 µM: 90%
[12]
  remaining binding at 10 µM: 83%
[13]
  remaining binding at 10 µM: 97%
[14]
  remaining binding at 10 µM: 62%
[15]
  remaining binding at 10 µM: 99%
[16]
  remaining binding at 10 µM: 95%
[17]
  remaining binding at 10 µM: 73%
[18]
  remaining binding at 10 µM: 62%
[19]
  remaining binding at 10 µM: 89%
[20]
  remaining binding at 10 µM: 80%
[21]
  remaining binding at 10 µM: 61%
[22]
  remaining binding at 10 µM: 100%
[23]
  remaining binding at 10 µM: 92%
[24]
  remaining binding at 10 µM: 99%
[25]
  remaining binding at 10 µM: 74%
[26]
  remaining binding at 10 µM: 93%
[27]
  remaining binding at 10 µM: 62%
[28]
  remaining binding at 10 µM: 97%
[29]
  remaining binding at 10 µM: 0.2%
[30]
  remaining binding at 10 µM: 98%
[31]
  remaining binding at 10 µM: 67%
[32]
  half-life: > 50 h
[33]
  cell viability (cell growth, synthesis of DNA, protein and lipid): no differences between control and PZ-2891; also recorded: did not impact cell viability
[34]
  fraction unbound: 0.08
